Measurements taken from patent publication US20220401464A1, “TREATMENT OF CYR61- AND VEGF-MEDIATED CONDITIONS” (VANDA PHARMACEUTICALS INC., priority 2013, published 2022).
Structures can show the parent of a compound that is named as a salt.

Test system: CYR61 gene expression
Assay: CYR61 gene expression in ARPE-19/HPV16 cells treated for 24 hours, Affymetrix probe sets
Assay type: cell-based, human
Design: amplitude: scale not given here
Conditions: 10 uM; for Fold (CYR61 Downregulation): versus vehicle
Description: In a study leading to embodiments of the invention, a human retinal pigment epithelial cell line (ARPE-19/HPV16) was separately treated with an anthracycline (doxorubicin or daunorubicin), a statin (simvastatin or lovastatin), or vehicle for 24 hours and gene expression for […] probe sets covering 12,490 genes was generated using an Affymetrix instrument. The effects of these compounds on the expression of CYR61 are shown below in Table 1.

Compound | Rank (probe 201289_at) | amplitude (probe 201289_at) | Fold (CYR61 Downregulation) (probe 201289_at) | Rank (probe 210764_s_at) | amplitude (probe 210764_s_at) | Fold (CYR61 Downregulation) (probe 210764_s_at)
CC(=O)[C@]1(O)Cc2c(O)c3c(c(O)c2[C@@H](O[C@H]2C[C@H](N)[C@H](O)[C@H](C)O2)C1)C(=O)c1ccccc1C3=O [Idarubicin HCl] | 22273 | −1.899 | −38.72 | 22267 | −1.875 | −31.13
COc1cccc2c1C(=O)c1c(O)c3c(c(O)c1C2=O)C[C@@](O)(C(C)=O)C[C@@H]3O[C@H]1C[C@H](N)[C@H](O)[C@H](C)O1 [Daunorubicin HCl] | 22278 | −1.921 | −49.81 | 22239 | −1.8272 | −22.15
COc1cccc2c1C(=O)c1c(O)c3c(c(O)c1C2=O)C[C@@](O)(C(=O)CO)C[C@@H]3O[C@H]1C[C@H](N)[C@H](O)[C@H](C)O1 [Doxorubicin HCl] | 22282 | −1.967 | −118.5 | 22272 | −1.925 | −52.26
CCC(C)(C)C(=O)O[C@H]1C[C@@H](C)C=C2C=C[C@H](C)[C@H](CC[C@@H]3C[C@@H](O)CC(=O)O3)[C@H]21 [Simvastatin] | 22255 | −1.378 | −5.428 | 22262 | −1.3931 | −5.591
CC[C@H](C)C(=O)O[C@H]1C[C@@H](C)C=C2C=C[C@H](C)[C@H](CC[C@@H]3C[C@@H](O)CC(=O)O3)[C@H]21 [Lovastatin] | 22271 | −1.412 | −5.799 | 22264 | −1.297 | −4.687
